# How the values were obtained:
# [1] = Clearance in hepatocytes, dog; assay type: in vitro ADME; settings: read-out: CLint, Dog (L/h/kg) ± SD (converted)
# From the text: (§1) Deuterated compounds were compared to their non-deuterated parent counterparts to determine the impact of deuteration on clearance results
# Aβ40 = assay: Aβ levels in rat brain and plasma following BACE1 inhibition (Aβ40 ELISA); assay type: in vivo, Sprague Dawley rats; settings: p.o.
# Description: Assessment of […] in rat brain and plasma following BACE1 inhibition.
# Young adult Male Sprague Dawley rats of approximately 250 g weight were purchased from Charles River and received vehicle (2.5% HP betaCD+1M MeSO4, pH 2.5) or 0-40 mg/kg of test compounds (dissolved in vehicle) by oral gavage (p.o). The compounds are dosed at a volume of 5 ml/kg. Cohorts of 5-10 animals were established for each treatment condition.
# Studies were set up as acute dose response treatment studies were samples were taken at T=180 minutes after initial dosing, or as 12 h or 24 h timecourse treatment studies. At the end of the test period, the animals were stunned and decapitated with a guillotine. Trunk-blood was sampled in EDTA coated tubes after decapitation of the animal. The blood was centrifuged at 2200G at 4° C. for 15 minutes and the plasma was collected and frozen at −80° C. The blood was aliquoted for Aβ ELISA and DMPK analysis. Immediately following sacrifice, the brain was extracted and split into 2 halves. The left half was dissected; with the front forebrain taken for Aβ ELISA and the remainder used for DMPK analysis. These samples were also snap frozen on dry ice and stored at −80° C. until use for analysis. The right hemibrains were snap frozen on dry ice and stored at −80° C. for independent confirmatory Aβ ELISA evalution.
# The cortex samples were thawed slightly on wet ice before they were homogenized with a small volume dispersing instrument (T10 basic ULTRA-TURRAX®) which was set at speed 5 for approximately 5-7 sec. The tissue was processed in a 10 times volume of the weight, for example 100 mg of tissue was homogenized in […] of Homogenization buffer. Homogenization buffer: 50 ml Milli Q water+[…]+0.2% Diethylamin (DEA)+1 tablet of Complete Protease inhibitor cocktail+[…] 4-(2-aminoethyl) benzenesulfonyl fluoride hydrochloride irreversible serine protease inhibitor (AEBSF).
# After homogenization 450 μL aliquots of the samples are collected into a 1.5 ml Eppendorf tube and placed on wet ice, 0.5% NP-40 (50 ul) was added to all samples and then they were incubated on ice for 30 min. After which all samples were sonicated using an Ultrasonic homogenizer with 20 kHz homogeneous sound (SONOPLUS HD2070, Bandelin Electronic) 10 pulse set at 12-13% power to extract all the Aβ species. The samples were then centrifuged (Ole Dich 157 MPRF Micro centrifuge) at 20000G for 20 minutes at 4° C. After centrifugation […] of the supernatant was pipetted into 600 μL microtubes tubes and neutralized with 15 µL of 1M Tris-HCL buffer.
# WAKO 294-62501 Human/Rat Abeta amyloid-40 kit was used for all ELISA analyses. 30 μL plasma samples or 30 μL of the cortex supernatants generated as described above were placed in 600 μL microtubes tubes on wet ice. To this 30 μL of 8M Urea (AppliChem A1049, 9025) are added to generate a 2-fold dilution. Both plasma and cortex supernatants are incubated on ice for 30 min. Standard rows were prepared from the standard peptide stock provided in the kit and standard diluent containing 1.6M Urea (200 μL 8M Urea+800 μL of standard diluent) and 0.8M Urea (400 μL 8M Urea+[…] Standard diluent). A serial 2-fold dilution of Aβ40 from 100 pmol/ml to 0 pmol/L was prepared for the assay.
# After incubation with urea, all samples were further diluted by addition of 5 times standard diluent from the Kit. This was done by adding 240 μL Standard Diluent to 60 μL sample/urea mixture, which was then mixed well. 100 μL of each diluted sample was pipetted into designated wells of the ELISA plate in duplicates. The plate was then covered and incubated overnight at 4° C. The following day, the ELISA kit was brought to room temperature before use. The incubated plate was washed 5 times with the 20× washing solution diluted in Milli Q water. 100 μL HRP-conjugate was applied to each well, and the plate was covered and incubates at 4° C. for 1 hr. The wash was repeated again for 5 times. […]
# [2] = Clearance in microsomes, cyno; assay type: in vitro ADME; settings: cynomolgus monkey, 1 microM, read-out: CLint, Cyno (L/h/kg) ± SD (converted)
# From the text: as §1
# [3] = Clearance in hepatocytes, cyno; assay type: in vitro ADME; settings: cynomolgus monkey, read-out: CLint, Cyno (L/h/kg) ± SD (converted)
# From the text: as §1
structure (smiles),measurement,setting,value
"[2H]C([2H])([2H])Oc1cnc(C(=O)Nc2ccc(F)c([C@]3(C)CC[C@@](F)(CF)C(N)=N3)c2)cn1 [Example 1, N-(3-((2S,5S)-6-amino-5-fluoro-5-(fluoromethyl)-2-methyl-2,3,4,5-tetrahydropyridin-2-yl)-4-fluorophenyl)-5-(methoxy-d3)pyrazine-2-carboxamide]",CLint scaled at 0.1 µM,[1]; 0.1 microM,34 L/h/kg
same,CLint scaled at 0.3 µM,[1]; 0.3 microM,25 L/h/kg
same,CLint scaled at 1 µM,[1]; 1 microM,11 L/h/kg
same,Aβ40 reduction (%) brain,"Aβ40; 10 mg/kg, 0.5 h",−0.3%
same,Aβ40 reduction (%) plasma,"Aβ40; 10 mg/kg, 0.5 h",−0.4%
same,Aβ40 reduction (%) brain,"Aβ40; 10 mg/kg, 1 h",17.2%
same,Aβ40 reduction (%) plasma,"Aβ40; 10 mg/kg, 1 h",29.5%
same,Aβ40 reduction (%) brain,"Aβ40; 10 mg/kg, 3 h",38.3%
same,Aβ40 reduction (%) plasma,"Aβ40; 10 mg/kg, 3 h",21.7%
same,Aβ40 reduction (%) brain,"Aβ40; 10 mg/kg, 6 h",39.4%
same,Aβ40 reduction (%) plasma,"Aβ40; 10 mg/kg, 6 h",15.5%
same,Aβ40 reduction (%) brain,"Aβ40; 10 mg/kg, 12 h",13.7%
same,Aβ40 reduction (%) plasma,"Aβ40; 10 mg/kg, 12 h",20.7%
same,Aβ40 reduction (%) brain,"Aβ40; 20 mg/kg, 0.5 h",14.7%
same,Aβ40 reduction (%) plasma,"Aβ40; 20 mg/kg, 0.5 h",36.5%
same,Aβ40 reduction (%) brain,"Aβ40; 20 mg/kg, 1 h",29.7%
same,Aβ40 reduction (%) plasma,"Aβ40; 20 mg/kg, 1 h",41.4%
same,Aβ40 reduction (%) brain,"Aβ40; 20 mg/kg, 3 h",38.5%
same,Aβ40 reduction (%) plasma,"Aβ40; 20 mg/kg, 3 h",34.5%
same,Aβ40 reduction (%) brain,"Aβ40; 20 mg/kg, 6 h",42.6%
same,Aβ40 reduction (%) plasma,"Aβ40; 20 mg/kg, 6 h",36.9%
same,Aβ40 reduction (%) brain,"Aβ40; 20 mg/kg, 12 h",34.5%
same,Aβ40 reduction (%) plasma,"Aβ40; 20 mg/kg, 12 h",41.3%
same,Aβ40 reduction (%) brain,"Aβ40; 40 mg/kg, 0.5 h",39.8%
same,Aβ40 reduction (%) plasma,"Aβ40; 40 mg/kg, 0.5 h",43.0%
same,Aβ40 reduction (%) brain,"Aβ40; 40 mg/kg, 1 h",43.9%
same,Aβ40 reduction (%) plasma,"Aβ40; 40 mg/kg, 1 h",47.8%
same,Aβ40 reduction (%) brain,"Aβ40; 40 mg/kg, 3 h",50.6%
same,Aβ40 reduction (%) plasma,"Aβ40; 40 mg/kg, 3 h",47.1%
same,Aβ40 reduction (%) brain,"Aβ40; 40 mg/kg, 6 h",59.5%
same,Aβ40 reduction (%) plasma,"Aβ40; 40 mg/kg, 6 h",49.9%
same,Aβ40 reduction (%) brain,"Aβ40; 40 mg/kg, 12 h",57.7%
same,Aβ40 reduction (%) plasma,"Aβ40; 40 mg/kg, 12 h",41.5%
same,CLint scaled at 1 µM,[2],10 L/h/kg
same,CLint scaled at 0.1 µM,[3]; 0.1 microM,75 L/h/kg
same,CLint scaled at 0.3 µM,[3]; 0.3 microM,74 L/h/kg
same,CLint scaled at 1 µM,[3]; 1 microM,20 L/h/kg
